System: P. aeruginosa strains (PAO1 and 2 clinical isolates)
Assay: Determination of bacterial resistance, passage at 0.5×MIC with daily MIC
Assay type: cell-based, Pseudomonas aeruginosa
Conditions: three P. aeruginosa strains, exposure at 0.5×MIC, FIG. 20
Text: Each antibiotic was compared for their propensity to select for bacterial resistance phenotypes in vitro.

In the case of Colistin [reference compound], the “time to development of resistance (fold MIC >10)” value is reported as ≤ 13 days.

Source: patent publication US20240115654A1, “INTRAVENOUS ADMINISTRATION OF ENGINEERED ANTIMICROBIAL AMPHIPHILIC PEPTIDES” (priority 2021, published 2024)
